Data from PubChem BioAssay AID330 (DTP/NCI, 2004).
Inconclusive results and toxic doses are left out. How the source made its calls: active means survival T/C of 150% or more; inactive means T/C below 125% in these data.

System: P388 leukemia ip, CD2F1 mice, survival T/C
Test: NCI In Vivo Anticancer Drug Screen. Data for tumor model P388 Leukemia (intraperitoneal) in CD2F1 (CDF1) mice
Conditions: endpoint: median survival time, higher = longer survival
In short: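 Mice carrying the transplanted tumor received test compound or vehicle. Survival was recorded in each group, and the value is the treated-group measurement divided by that of the vehicle-treated control group.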

[1] = dose: 50.0 mg/kg/injection, schedule: Q01DX005 (ip), vehicle: saline with Tween-80
[2] = dose: 100.0 mg/kg/injection, schedule: Q01DX005 (ip), vehicle: saline with Tween-80
[3] = dose: 200.0 mg/kg/injection, schedule: Q01DX005 (ip), vehicle: saline with Tween-80
[4] = dose: 50.0 mg/kg/injection, schedule: Q01DX009 (ip), vehicle: Klucel (hydroxypropylcellulose) (HPC)
[5] = dose: 100.0 mg/kg/injection, schedule: Q01DX009 (ip), vehicle: Klucel (hydroxypropylcellulose) (HPC)
[6] = dose: 200.0 mg/kg/injection, schedule: Q01DX009 (ip), vehicle: Klucel (hydroxypropylcellulose) (HPC)
[7] = dose: 50.0 mg/kg/injection, schedule: Q01DX009 (ip), vehicle: saline with Tween-80
[8] = dose: 100.0 mg/kg/injection, schedule: Q01DX009 (ip), vehicle: saline with Tween-80

Measured: T/C

O=C(Nc1cccnc1)c1cccc([N+](=O)[O-])c1
inactive: dose: 60.0 mg/kg/injection, schedule: Q01DX005 (ip), vehicle: saline with Tween-80 100 % of control | dose: 120.0 mg/kg/injection, schedule: Q01DX005 (ip), vehicle: saline with Tween-80 98 % of control | dose: 240.0 mg/kg/injection, schedule: Q01DX005 (ip), vehicle: saline with Tween-80 97 % of control

COc1cc2c(cc1OC)C(Cc1ccccc1[N+](=O)[O-])=NCC2
inactive: dose: 25.0 mg/kg/injection, schedule: Q04DX003 (ip), vehicle: saline with Tween-80 99 % of control | dose: 50.0 mg/kg/injection, schedule: Q04DX003 (ip), vehicle: saline with Tween-80 100 % of control | dose: 100.0 mg/kg/injection, schedule: Q04DX003 (ip), vehicle: saline with Tween-80 114 % of control | dose: 200.0 mg/kg/injection, schedule: Q04DX003 (ip), vehicle: saline with Tween-80 100 % of control

COc1ccc2nc3cc(Cl)ccc3c(Nc3ccc(S(=O)(=O)Nc4nccs4)cc3)c2c1
inactive: [1] 94 % of control | [2] 105 % of control | [3] 97 % of control

CSc1nc(N)c(C(=O)N2CCCCC2)s1
inactive: [4] 100 % of control | [5] 100 % of control | [6] 89 % of control

CC1(C)C=CC(=O)C=C1C#N
inactive: dose: 100.0 mg/kg/injection, schedule: Q01DX001 (ip), vehicle: Klucel (hydroxypropylcellulose) (HPC) 92 % of control | dose: 200.0 mg/kg/injection, schedule: Q01DX001 (ip), vehicle: Klucel (hydroxypropylcellulose) (HPC) 104 % of control | dose: 400.0 mg/kg/injection, schedule: Q01DX001 (ip), vehicle: Klucel (hydroxypropylcellulose) (HPC) 106 % of control

Cc1coc2c1C1OC(=O)C3(C/C=C\C(C)C2)OC13 (centres undefined)
inactive: dose: 5625.0 micrograms/kg/injection, schedule: Q01DX005 (ip), vehicle: Klucel (hydroxypropylcellulose) (HPC) 100 % of control | dose: 11250.0 micrograms/kg/injection, schedule: Q01DX005 (ip), vehicle: Klucel (hydroxypropylcellulose) (HPC) 100 % of control | dose: 22500.0 micrograms/kg/injection, schedule: Q01DX005 (ip), vehicle: Klucel (hydroxypropylcellulose) (HPC) 100 % of control

CCOC(=O)C1(n2[nH]c(=O)n(-c3ccccc3)c2=O)CC(C)OC1=O (centres undefined)
inactive: [4] 94 % of control | [5] 91 % of control | [6] 91 % of control

Cc1ccc(C(c2ccccc2)c2ccc(C)cc2O)c(O)c1
inactive: [7] 118 % of control | [8] 105 % of control

O=C(/C=C/c1ccc2c(c1)OCO2)c1cc(Cl)ccc1O
inactive: [1] 93 % of control | [2] 98 % of control | [3] 102 % of control

Cc1cc(=O)c2cc3ccc4c5[nH]c(C)cc(=O)c5cc5ccc(c2[nH]1)c3c54
inactive: [1] 101 % of control | [2] 106 % of control | [3] 111 % of control

c1csc(C2=NCCC2)c1
inactive: [1] 100 % of control | [2] 102 % of control | [3] 102 % of control

NCCCCC(C(=O)NC(Cc1ccc(O)cc1)C(=O)NN)N(C(=O)OCc1ccccc1)C(=O)OCc1ccccc1 (centres undefined)
inactive: dose: 50.0 mg/kg/injection, schedule: Q01DX005 (ip), vehicle: saline + Tween-80 + alcohol 107 % of control | dose: 100.0 mg/kg/injection, schedule: Q01DX005 (ip), vehicle: saline + Tween-80 + alcohol 104 % of control | dose: 200.0 mg/kg/injection, schedule: Q01DX005 (ip), vehicle: saline + Tween-80 + alcohol 94 % of control

CC(=O)N1C2=CCCC3CCCCC23c2ccccc21 (centres undefined)
inactive: [7] 98 % of control | [8] 93 % of control | dose: 200.0 mg/kg/injection, schedule: Q01DX009 (ip), vehicle: saline with Tween-80 89 % of control | dose: 400.0 mg/kg/injection, schedule: Q01DX009 (ip), vehicle: saline with Tween-80 95 % of control

CCCCCCCCCCCCCCCC(=O)OCC(=O)OC
inactive: [4] 101 % of control | [5] 93 % of control | [6] 93 % of control

CCCN1C(=O)CC(NC(C)=O)C1=O (centres undefined)
inactive: [1] 107 % of control | [2] 107 % of control | [3] 107 % of control

CSCCC(NC=O)C(=O)O (centres undefined)
inactive: dose: 3.12 mg/kg/injection, schedule: Q01DX009 (ip), vehicle: saline 88 % of control | dose: 6.25 mg/kg/injection, schedule: Q01DX009 (ip), vehicle: saline 91 % of control | dose: 12.5 mg/kg/injection, schedule: Q01DX009 (ip), vehicle: saline 87 % of control | dose: 25.0 mg/kg/injection, schedule: Q01DX009 (ip), vehicle: saline 92 % of control | dose: 50.0 mg/kg/injection, schedule: Q01DX005 (ip), vehicle: saline 98 % of control | dose: 100.0 mg/kg/injection, schedule: Q01DX005 (ip), vehicle: saline 98 % of control | dose: 200.0 mg/kg/injection, schedule: Q01DX005 (ip), vehicle: saline 98 % of control

C=Cc1ccccc1NC(C(=O)O)c1ccccc1 (centres undefined)
inactive: [1] 107 % of control | [2] 106 % of control | [3] 104 % of control

CCOc1ccc2nc(SCCl)sc2c1
inactive: dose: 25.0 mg/kg/injection, schedule: Q01DX009 (ip), vehicle: saline with Tween-80 101 % of control | [7] 99 % of control | [8] 91 % of control
